Measured values: ChEMBL document CHEMBL4627262, “VEGFR-2 inhibiting effect and molecular modeling of newly synthesized coumarin derivatives as anti-breast cancer agents” (Bioorg Med Chem, 2020)
Activity calls are given as the source filed them. The rule behind the calls is not given here.

Key:
MCF7 [1] = test: Induction of apoptosis in human MCF7 cells assessed as late apoptotic cells after 48 hrs by Annexin V-FITC/propidium iodide staining based flow cytometric analysis (reference value: 0.3 %); assay type: functional
MCF7 [2] = test: Induction of apoptosis in human MCF7 cells assessed as early apoptotic cells after 48 hrs by Annexin V-FITC/propidium iodide staining based flow cytometric analysis (reference value: 1.56 %); assay type: functional
MCF7 [3] = test: Induction of apoptosis in human MCF7 cells assessed as necrotic cells at after 48 hrs by Annexin V-FITC/propidium iodide staining based flow cytometric analysis (reference value: 0.41 %); assay type: functional
MCF7 [4] = test: Induction of apoptosis in human MCF7 cells assessed as up regulation of caspase 9 expression by measuring caspase 9 level by ELISA (reference value: 1.223 ng/ml); assay type: functional
PC-3 = test: Cytotoxicity against human PC3 cells assessed as inhibition of cell proliferation after 3 days by MTT assay; assay type: functional, cell-based
MCF7 [5] = test: Cytotoxicity against human MCF7 cells assessed as inhibition of cell proliferation after 3 days by MTT assay; assay type: functional, cell-based; conditions: MCF7, 72 h
[6] = molecular target: Vascular endothelial growth factor receptor 2 (Homo sapiens, UniProt P35968); test: Inhibition of VEGFR2 in human MCF7 cells by horseradish peroxidase-coupled TMB substrate based ELISA; assay type: cell-based
Vascular endothelial growth factor receptor 2, sequence (P35968 whole entry): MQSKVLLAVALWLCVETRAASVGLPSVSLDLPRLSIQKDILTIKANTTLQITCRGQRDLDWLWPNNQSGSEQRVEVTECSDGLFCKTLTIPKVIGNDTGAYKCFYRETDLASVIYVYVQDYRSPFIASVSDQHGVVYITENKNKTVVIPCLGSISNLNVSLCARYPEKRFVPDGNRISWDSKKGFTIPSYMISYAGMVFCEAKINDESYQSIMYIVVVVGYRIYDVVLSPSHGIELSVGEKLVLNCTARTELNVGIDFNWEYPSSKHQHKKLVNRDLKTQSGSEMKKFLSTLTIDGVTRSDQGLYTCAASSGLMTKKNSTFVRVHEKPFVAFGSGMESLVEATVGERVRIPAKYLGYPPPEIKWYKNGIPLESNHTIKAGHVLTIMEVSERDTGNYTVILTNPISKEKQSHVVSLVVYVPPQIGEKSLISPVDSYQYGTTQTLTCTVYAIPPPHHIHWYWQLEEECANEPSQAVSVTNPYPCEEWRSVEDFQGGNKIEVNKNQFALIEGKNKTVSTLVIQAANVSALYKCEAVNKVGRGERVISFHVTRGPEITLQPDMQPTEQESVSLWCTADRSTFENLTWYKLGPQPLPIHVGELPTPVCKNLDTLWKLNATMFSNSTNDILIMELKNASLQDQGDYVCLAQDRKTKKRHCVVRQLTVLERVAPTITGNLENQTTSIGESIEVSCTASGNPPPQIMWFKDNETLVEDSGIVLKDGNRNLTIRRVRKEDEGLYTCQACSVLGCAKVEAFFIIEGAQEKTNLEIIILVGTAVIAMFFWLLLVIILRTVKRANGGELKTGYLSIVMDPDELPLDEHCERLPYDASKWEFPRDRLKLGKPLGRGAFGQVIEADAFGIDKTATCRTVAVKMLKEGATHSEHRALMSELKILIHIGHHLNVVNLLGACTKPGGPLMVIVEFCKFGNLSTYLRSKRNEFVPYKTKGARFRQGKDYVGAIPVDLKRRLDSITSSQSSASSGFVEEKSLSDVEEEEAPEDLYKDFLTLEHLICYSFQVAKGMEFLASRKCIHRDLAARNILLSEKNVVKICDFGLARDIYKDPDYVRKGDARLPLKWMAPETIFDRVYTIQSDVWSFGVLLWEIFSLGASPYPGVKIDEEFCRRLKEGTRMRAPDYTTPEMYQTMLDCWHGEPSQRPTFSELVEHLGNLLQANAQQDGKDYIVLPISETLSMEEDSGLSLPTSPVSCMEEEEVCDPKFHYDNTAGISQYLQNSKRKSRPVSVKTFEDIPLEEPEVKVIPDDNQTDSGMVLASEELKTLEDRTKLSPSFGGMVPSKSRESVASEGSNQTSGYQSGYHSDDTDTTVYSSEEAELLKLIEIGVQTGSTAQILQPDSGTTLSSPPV

MCF7 [7] = test: Cell cycle arrest in human MCF7 cells assessed as induction of preG1 apoptosis after 48 hrs by propidium iodide/RNase A staining based flow cytometry analysis; assay type: functional
MCF7 [8] = test: Cell cycle arrest in human MCF7 cells assessed as accumulation at G2/M phase after 48 hrs by propidium iodide/RNase A staining based flow cytometry analysis; assay type: functional

SMILES | inhibition (PC-3) | IC50 (MCF7 [5]) [µM] | other results
CN[C@@H]1C[C@H]2O[C@@](C)([C@@H]1OC)n1c3ccccc3c3c4c(c5c6ccccc6n2c5c31)C(=O)NC4 [STAUROSPORINE] | – | – | Activity (MCF7 [1]): 11.27%; Activity (MCF7 [2]): 8.16%; Activity (MCF7 [3]): 2.33%; Activity (MCF7 [4]): 8.41 ng/mL
O=c1oc2ccc(S(=O)(=O)N3CCOCC3)cc2cc1Br | inactive | 13.2 | –
O=c1oc2ccc(S(=O)(=O)NCc3ccc4c(c3)OCO4)cc2cc1Br | inactive | 7.79 | –
Cc1cc(=O)oc2cc(OCC(=O)N/N=C/c3ccc(F)cc3)ccc12 | inactive | 9.78 | –
Cc1cc(=O)oc2cc(OCC(=O)NNCc3ccccc3)ccc12 | inactive | 1.24 | Activity (MCF7 [1]): 17.78%; IC50 [6]: 360 nM; Activity (MCF7 [7]): Active; Activity (MCF7 [8]): Active; Activity (MCF7 [2]): 6.72%; Activity (MCF7 [3]): 1.92%; Activity (MCF7 [4]): 8.015 ng/mL
Cc1cc(=O)oc2cc(OCC(=O)N/N=C/c3ccc([N+](=O)[O-])cc3)ccc12 | inactive | 5.59 | –
Cc1cc(=O)oc2cc(OCC(=O)NNC(=O)CN3CCN(C)CC3)ccc12 | inactive | 6.68 | –
Cc1cc(=O)oc2cc(OCC(=O)NNC(=O)c3ccccc3)ccc12 | inactive | 7.89 | –
Cc1ccc(/C=N/NC(=O)COc2ccc3c(C)cc(=O)oc3c2)o1 | inactive | 3.19 | –
CN1CCN(S(=O)(=O)c2ccc3oc(=O)c(Br)cc3c2)CC1 | inactive | 31.4 | –
O=c1oc2ccc(S(=O)(=O)Nc3nc4ccccc4[nH]3)cc2cc1Br | inactive | 3.65 | –
Cc1cc(=O)oc2cc(OCC(=O)NN3C(=O)C=CC3=O)ccc12 | inactive | 2.11 | –
Cc1cc(=O)oc2ccc(N3C(=O)c4ccccc4C3=O)cc12 | inactive | 4.17 | –
Cc1cc(=O)oc2ccc(NC(=O)c3ccccc3)cc12 | inactive | 4.6 | –
Cc1cc(=O)oc2cc(OCC(=O)NN(C(=O)c3ccncc3)C(=O)c3ccncc3)ccc12 | inactive | 8.68 | –
Cc1cc(=O)oc2cc(OCC(=O)NN3C(=O)c4ccccc4C3=O)ccc12 | inactive | 14.7 | –
O=c1oc2ccc(S(=O)(=O)N3CCCCC3)cc2cc1Br | inactive | 2.07 | –
Cc1cc(=O)oc2cc(OCC(=O)Nn3c(=O)[nH]c4ccccc4c3=O)ccc12 | inactive | 1.65 | IC50 [6]: 660 nM
Cc1cc(=O)oc2cc(OCC(=O)N/N=C/c3ccc(N(C)C)cc3)ccc12 | inactive | 5.54 | –
COc1cc(OC)c(CNS(=O)(=O)c2ccc3oc(=O)c(Br)cc3c2)c(OC)c1 | inactive | 5.76 | –
Cc1cc(=O)oc2cc(OCC(=O)NNC(=O)CN3CCOCC3)ccc12 | inactive | 37.3 | –
